Measurements from patent US12312292B2, “Long chain alkyl esteramine lipid compound, preparation method therefor and application thereof in nucleic acid delivery” (RinuaGene Biotechnology Co., Ltd., priority 2022, dated 2025).

Assays:
luciferase mRNA = assay: Detection of reporter gene (luciferase mRNA) expression in mice in vivo; parameters: species or system BALB/c female mice; conditions: LNP-delivered luciferase mRNA, quadriceps muscle injection, IVIS 24 h after injection; dose (5 or 14 μg mRNA) not given
Experimental: The prepared LNP-encapsulated mRNA solution was diluted with PBS buffer to obtain the solution for injection. BALB/c female mice at about 20 g were injected with injection solution at the quadriceps muscle site of mice with an insulin syringe, and each mouse was injected with 50 μL. Two doses were designed: one dose of “5 μg mRNA per 50 μL of injection solution” and the other dose of “14 μg mRNA per 50 μL of injection solution”. BALB/c female mice at about 20 g are injected with PBS buffer at the quadriceps muscle site of mice with an insulin syringe, and each mouse was injected with 50 μL.
After the mice were injected for 24 h, in vivo expression of Luciferase was detected with Perkinelmer's IVIS. The substrate was D-luciferin Sodium salt (GOLDBIO, LUCNA-1G), which was formulated into a concentration of 15 mg/mL with normal saline, filtered and sterilized with a 0.22 μm filter membrane, and stored at −20° C. in aliquots protected from light. Before imaging, each mouse at about 20 g was intraperitoneally injected with 200 μL of substrate solution for 10-20 minutes, and then was anesthetized with isoflurane gas and placed prone on the imaging plate to detect the fluorescence of the animal in vivo, and the results are shown in Table 2.

[1] = In vivo expression distribution analysis of delivered luciferase mRNA (RT-PCR in tissues); parameters: species or system C57BL/6J mice; conditions: single intramuscular injection 50 μg; for Exposure in tissues and organs, from high to low: delivered luciferase mRNA, 2 h-336 h, RT-PCR
Experimental: In order to investigate the distribution features of lipid-delivering mRNA in vivo, we analyzed the distribution features of the reporter luciferase mRNA of the compounds of the present invention in C57BL/6J mice after administration by a single intramuscular injection. The experimental 10 C57BL/6J mice were enrolled, male and female, each administered 50 μg, with SM102 as the control.
Animals in the negative control group were collected at 2 h and 336 h after administration, and animals in the test group were collected at 2 h, 6 h, 24 h, 48 h, 72 h, 120 h, 168 h, and 336 h after administration whole blood, bone marrow, liver, spleen, heart, kidney, inguinal lymph nodes, mesenteric lymph nodes, spleen, brain, stomach, small intestine, non-injection site muscle, injection site muscle tissue, etc. The RNA content in the samples at each time point was detected by RT-PCR, and the lower limit of quantification of the method was […] to reflect the distribution features in C57BL/6J mice.

BALB/c female mice = assay: Acute toxicity analysis of lipid molecules (cationic lipid LNP) in BALB/c female mice; conditions: blood 24 h after injection, Ave(SD)
[2] = mRNA-LNP encapsulation: particle size, PDI and encapsulation rate of LNP; format: physicochemical
Experimental: The mRNA stock solution was dispersed in 20 mM acetic acid solution (pH 5.0) to a final concentration of 200 μg/mL (aqueous phase). A fat mixture (oil phase) was obtained by mixing under a molar ratio of the exemplary compound:cholesterol:DSPC:DMG-PEG2000=50:38.5:10:1.5. The flow rate of the aqueous phase and the oil phase was controlled by T mixed flow, and the mRNA and lipid mixture were mixed under the volume ratio of 3:1 to obtain LNP-encapsulated mRNA. The encapsulated LNP was diluted 10-fold with buffer, then concentrated by ultrafiltration, and the dilute was displaced, and finally the LNP was concentrated to mRNA being 200 µg/mL, and the pH of the LNP was adjusted to about 7-8. Finally, the Ribogreen kit and 10% OTG were used as demulsifiers to detect the total content of mRNA and the content of […], and the encapsulation rate of LNP was calculated. The LNP final product was diluted 10-fold with diluent, added 1 mL into a particle size cell, and placed on the Malvern ZetaSizer instrument to detect the particle size and PDI of LNP.

[3] = LNP of compound:cholesterol:DSPC:DMG-PEG2000=50:38.5:10:1.5 with mRNA, Malvern ZetaSizer

Row | SMILES | Average fluorescence intensity (luciferase mRNA) [P/s/cm^2/sr] | Exposure in tissues and organs, from high to low [1] | Alanine aminotransferase (BALB/c female mice; high dose group, 150 μg LNP/pc) [U/L] | Alkaline phosphatase (ALP) (BALB/c female mice; high dose group, 150 μg LNP/pc) [U/L] | Aspartate aminotransferase (BALB/c female mice; high dose group, 150 μg LNP/pc) [U/L] | Creatinine (BALB/c female mice; high dose group, 150 μg LNP/pc) [µmol/L] | γ-Glutamyltransferase (GGT) (BALB/c female mice; high dose group, 150 μg LNP/pc) | Alanine aminotransferase (BALB/c female mice; low dose group, 50 μg/pc) | Alkaline phosphatase (ALP) (BALB/c female mice; low dose group, 50 μg/pc) [U/L] | Aspartate aminotransferase (BALB/c female mice; low dose group, 50 μg/pc) [U/L] | Creatinine (BALB/c female mice; low dose group, 50 μg/pc) [µmol/L] | γ-Glutamyltransferase (GGT) (BALB/c female mice; low dose group, 50 μg/pc) | also measured
1 | CCCCCCCCCCCOC(=O)CCCCCN(CCCCCO)CCCCCCCC(=O)OC(CCCCCCCC)CCCCCCCC [Example 1] | 1.218E+06 | injection site muscle, inguinal lymph nodes, whole blood, spleen, non-injection site muscle, bone marrow, heart, liver, mesenteric lymph nodes, kidney, small intestine and brain | 38.16 | 112.7 | 125.26 | 12.4 | 0.12 (0.12) U/L | 33.46 (3.54) U/L | 114.38 | 109.92 | 13.8 | 0.22 (0.33) U/L | Total bilirubin (TBIL) (BALB/c female mice; high dose group, 150 μg LNP/pc): 1.56; Total bilirubin (TBIL) (BALB/c female mice; low dose group, 50 μg/pc): 1.18 (0.13)
2 | CCCCCCCCCCCOC(=O)CCCCCN(CCCCCCCO)CCCCCCCC(=O)OC(CCCCCCCC)CCCCCCCC [Example 3] | 8.55E+05 | – | – | – | – | – | – | – | – | – | – | – | –
3 | CCCCCCCCCCCOC(=O)CCCCCN(CCCCCCCCO)CCCCCCCC(=O)OC(CCCCCCCC)CCCCCCCC [Example 4] | 5.47E+05 | – | – | – | – | – | – | – | – | – | – | – | –
4 | CCCCCCCCCCCOC(=O)CCCCCN(CCCCCCCCCO)CCCCCCCC(=O)OC(CCCCCCCC)CCCCCCCC [Example 5] | 5.67E+05 | – | – | – | – | – | – | – | – | – | – | – | –
5 | CCCCCCCCCCCOC(=O)CCCCCN(CCCCCCCCCCO)CCCCCCCC(=O)OC(CCCCCCCC)CCCCCCCC [Example 6] | 5.08E+05 | – | – | – | – | – | – | – | – | – | – | – | –
6 | CCCCCCCCCCCOC(=O)CCCCCN(CCCCCCCCCCCCO)CCCCCCCC(=O)OC(CCCCCCCC)CCCCCCCC [Example 7] | 4.73E+05 | injection site muscle, inguinal lymph nodes, whole blood, spleen, non-injection site muscle, bone marrow, heart, liver, mesenteric lymph nodes, kidney, small intestine and brain | 39.92 | 103.8 | 138.44 | 12.2 | 0.22 (0.04) U/L | 33.56 (5.17) U/L | 107.58 | 109.54 | 13.6 | 0.06 (0.12) U/L | Level (distribution) of delivered mRNA in the stomach ([1]; compared with SM-102): higher distribution; Level (distribution) of delivered mRNA in the stomach ([1]; compared with SM-102, listed as compound 7): relatively higher level; Total bilirubin (TBIL) (BALB/c female mice; high dose group, 150 μg LNP/pc): 1.35; Total bilirubin (TBIL) (BALB/c female mice; low dose group, 50 μg/pc): 1.18 (0.16)
7 | CCCCCCCCCCCOC(=O)CCCCCN(CCCCCCCC(=O)OC(CCCCCCCC)CCCCCCCC)C(C)CCCO (stereo not shown) [Example 8] | 1.17E+03 | – | – | – | – | – | – | – | – | – | – | – | –
8 | CCCCCCCCCCCOC(=O)CCCCCN(CCCCCCCC(=O)OC(CCCCCCCC)CCCCCCCC)C(C)CCO (stereo not shown) [Example 9] | 3.74E+05 | inguinal lymph nodes, injection site muscles, non-injection site muscles, whole blood, spleen, bone marrow, mesenteric lymph nodes, heart, liver, kidney, small intestine, stomach and brain | 37.25 | 116.9 | 128.26 | 12.1 | 0.18 (0.15) U/L | 35.44 (3.67) U/L | 115.29 | 107.55 | 14.2 | 0.24 (0.37) U/L | Level of delivered mRNA in the small intestine ([1]; compared with SM-102): relatively higher level; Total bilirubin (TBIL) (BALB/c female mice; high dose group, 150 μg LNP/pc): 1.43; Total bilirubin (TBIL) (BALB/c female mice; low dose group, 50 μg/pc): 1.21 (0.19)
9 | CCCCCCCCCCCOC(=O)CCCCCN(CCCCCCCC(=O)OC(CCCCCCCC)CCCCCCCC)CC(C)(C)CO [Example 10] | 7.37E+03 | – | – | – | – | – | – | – | – | – | – | – | –
10 | CCCCCCCCCCCOC(=O)CCCCCN(CCCCCCCC(=O)OC(CCCCCCCC)CCCCCCCC)CC(F)(F)CO [Example 11] | 1.39E+03 | – | – | – | – | – | – | – | – | – | – | – | –
11 | CCCCCCCCCCCOC(=O)CCCCCN(CCCCCCCC(=O)OC(CCCCCCCC)CCCCCCCC)CC1(CO)CC1 [Example 12] | 3.62E+03 | – | – | – | – | – | – | – | – | – | – | – | –
12 | CCCCCCCCCCCOC(=O)CCCCCN(CCCCCCCC(=O)OC(CCCCCCCC)CCCCCCCC)CC1(O)CC1 [Example 13] | 2.78E+05 | inguinal lymph nodes, injection site muscles, non-injection site muscles, whole blood, spleen, bone marrow, mesenteric lymph nodes, heart, liver, kidneys, stomach, small intestine and brain | 39.99 | 109.84 | 126.77 | 12.4 | 0.18 (0.18) U/L | 36.19 (3.01) U/L | 111.74 | 110.27 | 13.5 | 0.38 (0.41) U/L | Level (distribution) of delivered mRNA in the stomach ([1]; compared with SM-102): relatively higher level; Total bilirubin (TBIL) (BALB/c female mice; high dose group, 150 μg LNP/pc): 1.34; Total bilirubin (TBIL) (BALB/c female mice; low dose group, 50 μg/pc): 1.18 (0.23)
13 | CCCCCCCCCCCOC(=O)CCCCCN(CCCCCCCC(=O)OC(CCCCCCCC)CCCCCCCC)C1(CO)CC1 [Example 14] | 1.91E+03 | – | – | – | – | – | – | – | – | – | – | – | –
14 | CCCCCCCCCCCOC(=O)CCCCCN(CCCCCCCC(=O)OC(CCCCCCCC)CCCCCCCC)CC1(CO)CCC1 [Example 15] | 1.57E+03 | – | – | – | – | – | – | – | – | – | – | – | –
15 | CCCCCCCCCCCOC(=O)CCCCCN(CCO)CCCCCCCC(=O)OC(CCCCCCCC)CCCCCCCC [SM102, reference compound] | 1.112E+06 | inguinal lymph nodes, injection site muscles, whole blood, non-injection site muscles, spleen, bone marrow, heart, mesenteric lymph nodes, liver, kidney, small intestine, and brain | 56.18 | 116.88 | 145.96 | 12.6 | 0.32 (0.22) U/L | 36.04 (2.93) U/L | 131.7 | 121.4 | 14.6 | 0.41 (0.24) U/L | PDI [2, 3]: 0.1296; Particle size (nm) [2, 3]: 92.16 nm; Encapsulation rate ([2]; LNP-encapsulated mRNA, Ribogreen kit): 95%
